Measurements published in patent publication US20050165082A1, “Methods of treating vasomotor symptoms” (Wyeth, priority 2003, published 2005).
Entries after “also recorded” stand apart in the source; their conditions may differ.

Tests used:
[1] = test system: naloxone-induced flush in morphine-dependent ovariectomized rats; assay: Morphine-dependent rat model: naloxone-induced flush, tail skin temperature (TST); type: in vivo
Method: (§1) Dosing: All doses were prepared based on mg/kg. All compounds were administered intraperitoneally and dissolved and used at the following dosages: SSR149415 (V1b receptor antagonist, 3.0-30 mg/kg was dissolved in 5% DMSO in 5% Cremophor EL). SSR49059 (V1a receptor antagonist, 30 mg/kg was dissolved 10% DMSO/sterile H2O) and VPA-985 (V2 receptor antagonist, 30 mg/kg was dissolved 10% DMSO/sterile H2O). Naloxone (1.0 mg/kg was dissolved in sterile H2O) was injected subcutaneously.
Animals: Ovariectomized Sprague-Dawley rats (180-220 g) were obtained from a commercial vendor (Taconic, Germantown, N.Y.) and individually housed under 12 hours light/dark cycle in a room maintained at 25° C. Animals were provided with standard rat chow and water ad libitum.
Morphine-dependent model: Ovariectomized rats were injected once daily for 8-9 days with vehicle to minimize stress responses and then administered compound(s) on test day (10 rats/group). On day 4 of vehicle dosing, morphine dependence was induced by sc implantation of two slow-release morphine pellets (75 mg/pellet) in the dorsal scapular region. This model is based upon an established morphine-dependent naloxone-induced flush paradigm that is reversible by estrogen treatment (Katovich et al., Proceedings of the Society for Experimental Biology & Medicine, 1990. 193(2): p. 129-35). Four to six days after implantation, morphine withdrawal was induced with an opioid antagonist (naloxone) that causes a transient increase in TST. In a typical experiment, rats were administered their final dose of test compound 40 minutes prior to naloxone injection. Rats were mildly sedated with ketamine and a thermistor connected to a MacLab data acquisition system (CB Sciences, Dover, N.H.) was taped to the base of the tail. Tail skin temperature was then monitored continuously for 10 minutes to establish a baseline temperature. Naloxone was subsequently administered and TST was measured for an additional […] (total recording time 95 min).
Statistical analysis: To analyze changes in TST induced by naloxone in morphine-dependent rats, all data was analyzed using a two factors repeated measure. The factors were “treatment” and “time” (repeated). The model was fit to test whether there were significant differences in the responses between treatment groups. The data was analyzed at 5 minute intervals from 20 minutes (−20) prior to the naloxone administration (referred to as time 0) to 60 minutes after the treatment. Multiple comparisons (LSD p-values) among the treatment groups at each time point were used for the analysis, however, the changes in TST is greatest at 15 minutes post naloxone administration and this time point provides the best indicator of flush abatement. When appropriate estimation of the ED50 value was calculated. The ED50 value was determined using a log scale and the line was fit between the maximal (15 minutes post naloxone ΔTST) and minimal response (average baseline temperature prior to naloxone). The ED50 value is reported as the dose of test compound that abates 50% of the naloxone-induced flush.
Method used as described in the general method section under morphine-dependent rat model with the following exceptions: in the morphine-dependent model rats were injected intraperitoneally with vehicle (5% DMSO in 5% Cremophor EL) or SSR149415 (V1b receptor antagonist) which may be prepared as described in WO 01/55134, dissolved in 5% DMSO in 5% Cremophor EL and administered at 3.0 and 30 mg/kg 40 minutes prior to naloxone injection (FIGS. 1A and 1B). […] At the highest dose (30 mg/kg) tested antagonism of the V1b receptor produced a 60% abatement of the naloxone-induced flush. […]

[2] = test system: tail skin temperature in ovariectomized rats; assay: OVX-induced thermoregulatory dysfunction telemetry model (TST); type: in vivo, rat; conditions: 30 mg/kg intraperitoneal, 30 minutes prior to onset of dark cycle
Method: as §1
Animals: Ovariectomized Sprague-Dawley rats (180-220 g) were obtained from a commercial vendor (Taconic, Germantown, N.Y.) and individually housed under 12 hours light/dark cycle in a room maintained at 25° C. […]
OVX-induced thermoregulatory dysfunction telemetry model: To determine the effect that test compounds had on thermoregulation, TST was monitored in ovariectomized rats by telemetry (6-7 rats/group). […] After a 7 day recovery period rats were administered a vehicle injection and TST monitored continuously for 12 hours (Day 1). Twenty-four hours later rats were administered either vehicle or test compound and TST monitored continuously for 12 hours (Day 2). […]
To analyze changes in TST induced by test compounds in the thermoregulatory dysfunction model a 2-day paradigm was used. […] On Day 2, test compound is administered and TST readings are recorded every 30 minutes as described above. […]

[3] = 30 mg/kg intraperitoneal, 15 minutes post-naloxone

SMILES | effect on naloxone-induced flush at maximal flush (ΔTST) [1, 3] | effect on naloxone-induced flush at maximal flush (ΔTST) ([1]; 3.0 mg/kg intraperitoneal, 15 minutes post-naloxone) | abatement of the naloxone-induced flush ([1]; 30 mg/kg intraperitoneal (highest dose), 40 minutes prior to naloxone) [%] | changes in TST over time, naloxone-induced flush ([1]; 3.0 and 30 mg/kg intraperitoneal, 40 minutes prior to naloxone) | ED50 ([1]; Rattus norvegicus, ip, intraperitoneal, 40 minutes prior to naloxone, maximal flush, 15 minutes post-naloxone, read-out: ED50 value, abatement of naloxone-induced flush) [mg/kg] | change in TST (ΔTST) relative to vehicle, active phase [2]
COc1ccc(S(=O)(=O)N2c3ccc(Cl)cc3[C@](O)(c3ccccc3Cl)[C@@H]2C(=O)N2CCC[C@H]2C(N)=O)cc1OC [SR49059] | lack efficacy in attenuating the naloxone-induced flush; also recorded: failed to abate the naloxone-induced flush | – | – | – | – | –
COc1ccc(S(=O)(=O)N2C(=O)C(c3ccccc3OC)(N3C[C@H](O)C[C@H]3C(=O)N(C)C)c3cc(Cl)ccc32)c(OC)c1 (stereo partly drawn) [SSR149415, (2S,4R)-1-[5-Chloro-1-[(2,4-dimethoxyphenyl)-sulfonyl]-3-(2-methoxy-phenyl)-2-oxo-2,3-dihydro-1H-indol-3-yl]-4-hydroxy-N,N-dimethyl-2-pyrrolidine carboxamide] | significantly and dose-dependently abated the naloxone-induced flush | no effect | 60 | dose-dependently abates the naloxone-induced flush | 12.1 | significant decrease in ΔTST; also recorded: able to restore normal thermoregulation; also recorded: significantly and transiently decreased TST
Cc1ccc(F)cc1C(=O)Nc1ccc(C(=O)N2Cc3cccn3Cc3ccccc32)c(Cl)c1 [VPA-985] | lack efficacy in attenuating the naloxone-induced flush; also recorded: failed to abate the naloxone-induced flush | – | – | – | – | –
